{
  "source": "patent US7223781B2",
  "about": "(Beiersdorf AG, priority 2001, dated 2007)",
  "target": "T1, COX-1 (Sus scrofa, UniProt A0A287ANF9)",
  "T1 construct": "A platelet suspension obtained from pig's blood is preincubated with the test substance; endogenous in cells; host or cells: platelets from pig's blood",
  "T1 sequence (A0A287ANF9 25-600)": "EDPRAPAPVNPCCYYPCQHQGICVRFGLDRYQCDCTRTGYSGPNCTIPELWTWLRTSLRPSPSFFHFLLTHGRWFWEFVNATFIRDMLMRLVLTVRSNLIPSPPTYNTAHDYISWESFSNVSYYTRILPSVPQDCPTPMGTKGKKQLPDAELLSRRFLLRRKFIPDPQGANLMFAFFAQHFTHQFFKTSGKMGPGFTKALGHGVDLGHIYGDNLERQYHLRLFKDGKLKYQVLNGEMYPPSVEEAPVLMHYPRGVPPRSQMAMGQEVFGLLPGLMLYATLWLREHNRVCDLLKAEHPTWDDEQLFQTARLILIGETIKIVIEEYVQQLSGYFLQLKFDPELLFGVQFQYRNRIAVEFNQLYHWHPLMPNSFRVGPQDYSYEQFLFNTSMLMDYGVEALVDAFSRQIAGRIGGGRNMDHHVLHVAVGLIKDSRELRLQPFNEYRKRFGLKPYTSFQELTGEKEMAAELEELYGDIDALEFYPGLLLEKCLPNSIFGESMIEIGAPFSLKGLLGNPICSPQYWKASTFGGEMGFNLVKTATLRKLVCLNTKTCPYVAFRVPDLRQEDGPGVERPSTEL",
  "experiment": "In-vitro test for COX-1 inhibition: fluorimetric quantification of malonaldehyde (MDA) in A23187-activated pig platelet suspension",
  "format": "cell-based",
  "conditions": "pig platelets",
  "description": "In-vitro Test Procedure for the Determination of COX-1 Inhibition\nThe inhibition of the cyclooxygenase pathway is carried out by fluorimetric quantification of malonaldehyde (MA). This condenses in the acidic medium with twice the molar amount of thiobarbituric acid to give a red pigment dye, which has a fluorescence at λExcitation: 533 nm, λEmission: 550 nm.\nA platelet suspension obtained from pig's blood is preincubated with the test substance for 10 min at 37° C. The concentration of the suspension should be 8×10^8 cells/ml. The arachidonic acid cascade is then activated by addition of the antibiotic calcium ionophore A23187 ([…]). After a further 10 min at 37° C., the reaction is stopped using a trichloroacetic acid solution. The samples are centrifuged and the supernatant is incubated with thiobarbituric acid for 30 min at 70° C. After cooling (30 min at room temperature), the samples are measured fluorimetrically at 533/550 nm and the IC50 values of the test compounds are determined therefrom by means of a calibration curve.",
  "key": {"[1]": {"conditions": "Table 1, carbamic acid thioesters, read-out: MDA pIC50 (converted)"}, "[2]": {"conditions": "Table 2, sulfanylacetamides, read-out: MDA pIC50 (converted)"}, "[3]": {"conditions": "Table 8, arylsulfonamides, read-out: MDA IC50"}, "[4]": {"conditions": "Table 7, arylamides, read-out: MDA IC50"}, "[5]": {"conditions": "Table 7, arylamides, read-out: MDA pIC50 (converted)"}},
  "note": "Read-outs that look alike come from different tables or passages of the source.",
  "data": [
    {"compound": "COc1ccc(-c2nc(SC(=O)N(C)C)[nH]c2-c2ccc(OC)cc2)cc1", "note": "[Compound T1, [4,5-Bis(4-methoxyphenyl)-1H-imidazol-2-yl]-N,N-dimethylcarbamic acid thioester]", "values": [
      {"measurement": "IC50", "setting": "Table 1, carbamic acid thioesters, read-out: MDA IC50", "value": 71, "unit": "nM"}
    ]},
    {"compound": "COc1ccc(-c2nc(SC(=O)N(C(C)C)C(C)C)[nH]c2-c2ccc(OC)cc2)cc1", "note": "[Compound T3, [4,5-Bis(4-methoxyphenyl)-1H-imidazol-2-yl]-N,N-diisopropylcarbamic acid thioester]", "values": [
      {"measurement": "IC50", "setting": "[1]", "value": 12, "unit": "nM"}
    ]},
    {"compound": "COc1ccc(-c2nc(SC(=O)N3CCOCC3)[nH]c2-c2ccc(OC)cc2)cc1", "note": "[Compound T4, [4,5-Bis(4-methoxyphenyl)-1H-imidazol-2-yl]-morpholine-4-carbamic acid thioester]", "values": [
      {"measurement": "IC50", "setting": "[1]", "value": 28.2, "unit": "nM"}
    ]},
    {"compound": "COc1ccc(-c2nc(SCC(N)=O)[nH]c2-c2ccc(OC)cc2)cc1", "note": "[Compound T5, 2-[4,5-bis(4-methoxyphenyl)-1H-imidazol-2-ylsulfanyl]-acetamide]", "values": [
      {"measurement": "IC50", "setting": "Table 2, sulfanylacetamides, read-out: MDA IC50", "value": 450, "unit": "nM"}
    ]},
    {"compound": "COc1ccc(-c2nc(SCC(=O)Nc3ccccc3)[nH]c2-c2ccc(OC)cc2)cc1", "note": "[Compound T9, N^1-Phenyl-2-[4,5-bis(4-methoxyphenyl)-1H-imidazol-2-ylsufanyl]acetamide]", "values": [
      {"measurement": "IC50", "setting": "[2]", "value": 34.7, "unit": "nM"}
    ]},
    {"compound": "COc1ccc(-c2nc(SCC(=O)Nc3ccc(Cl)cc3)[nH]c2-c2ccc(OC)cc2)cc1", "note": "[Compound T10, N^1-(4-Chlorophenyl)-2-[4,5-bis(4-methoxyphenyl)-1H-imidazol-2-yl-sufanyl]acetamide]", "values": [
      {"measurement": "IC50", "setting": "[2]", "value": 209, "unit": "nM"}
    ]},
    {"compound": "COc1ccc(-c2nc(SCC(=O)c3ccc(Cl)cc3)[nH]c2-c2ccc(OC)cc2)cc1", "note": "[Compound T12]", "values": [
      {"measurement": "IC50", "setting": "Table 4, aryl ketones, read-out: MDA IC50", "value": 46, "unit": "nM"}
    ]},
    {"compound": "COc1ccc(-c2nc(SCCC(=O)c3ccccc3)[nH]c2-c2ccc(OC)cc2)cc1", "note": "[Compound T13, 3-[4,5-Bis(4-methoxyphenyl)-1H-imidazol-2-ylsufanyl]-1-phenylpropan-1-one]", "values": [
      {"measurement": "IC50", "setting": "Table 4, aryl ketones, read-out: MDA pIC50 (converted)", "value": 20.9, "unit": "nM"}
    ]},
    {"compound": "COc1ccc(-c2nc(SCCN(C)C)[nH]c2-c2ccc(OC)cc2)cc1", "note": "[Compound T14, N,N-Dimethyl-[4,5-bis(4-methoxyphenyl)-1H-imidazol-2-ylsulfanyl]-ethanamine]", "values": [
      {"measurement": "MDA pIC50", "setting": "Table 3, amines", "value": 5.49, "unit": "M"},
      {"measurement": "IC50", "setting": "Table 3, amines, read-out: MDA IC50", "value": 3200, "unit": "nM"}
    ]},
    {"compound": "COc1ccc(-c2nc(SCCN)[nH]c2-c2ccc(OC)cc2)cc1", "note": "[Compound T15, 2-[4,5-Bis(4-methoxyphenyl)-1H-imidazol-2-ylsufanyl]ethanamine]", "values": [
      {"measurement": "IC50", "setting": "Table 3, amines, read-out: MDA pIC50 (converted)", "value": 776, "unit": "nM"}
    ]},
    {"compound": "COc1ccc(-c2nc(SCCNS(=O)(=O)c3ccccc3)[nH]c2-c2ccc(OC)cc2)cc1", "note": "[Compound T17, N^1-{2-[4,5-Bis(4-methoxyphenyl)-1H-imidazol-2-ylsufanyl]ethyl}benzene-sulfonamide]", "values": [
      {"measurement": "IC50", "setting": "[3]", "value": 50, "unit": "nM"}
    ]},
    {"compound": "COc1ccc(-c2nc(SCCN(C)S(=O)(=O)c3ccc(Cl)cc3)n(C)c2-c2ccc(OC)cc2)cc1", "note": "[Compound T19, N^1-{2-[4,5-Bis(4-methoxyphenyl)-1-methyl-1H-imidazol-2-ylsufanyl]-ethyl}-N-1-methyl-4-chlorobenzenesulfonamide]", "values": [
      {"measurement": "IC50", "setting": "Table 16, dimethyl compounds, read-out: MDA pIC50 (converted)", "value": 69.2, "unit": "nM"}
    ]},
    {"compound": "COc1ccc(-c2nc(SCCNS(=O)(=O)c3ccc(F)cc3)[nH]c2-c2ccc(OC)cc2)cc1", "note": "[Compound T20, N^1-{2-[4,5-Bis(4-methoxyphenyl)-1H-imidazol-2-ylsufanyl]ethyl}-4-fluorobenzenesulfonamide]", "values": [
      {"measurement": "IC50", "setting": "[3]", "value": 60, "unit": "nM"}
    ]},
    {"compound": "COc1ccc(-c2nc(SCCNS(=O)(=O)c3ccc([N+](=O)[O-])cc3)[nH]c2-c2ccc(OC)cc2)cc1", "note": "[Compound T21, N^1-{2-[4,5-Bis(4-methoxyphenyl)-1H-imidazol-2-ylsufanyl]ethyl}-4-nitro-benzenesulfonamide]", "values": [
      {"measurement": "MDA pIC50", "setting": "Table 8, arylsulfonamides", "value": 6.96, "unit": "M"},
      {"measurement": "IC50", "setting": "[3]", "value": 110, "unit": "nM"}
    ]},
    {"compound": "COc1ccc(-c2nc(SCCNS(=O)(=O)c3ccc(C)cc3)[nH]c2-c2ccc(OC)cc2)cc1", "note": "[Compound T24, N^1-{2-[4,5-Bis(4-methoxyphenyl)-1H-imidazol-2-ylsufanyl]ethyl}-4-methylbenzenesulfonamide]", "values": [
      {"measurement": "IC50", "setting": "[3]", "value": 48, "unit": "nM"}
    ]},
    {"compound": "COc1ccc(-c2nc(SCCNS(=O)(=O)c3c(C)cc(C)cc3C)[nH]c2-c2ccc(OC)cc2)cc1", "note": "[Compound T25, N^1-{2-[4,5-Bis(4-methoxyphenyl)-1H-imidazol-2-ylsufanyl]ethyl}-2,4,6-trimethylbenzenesulfonamide]", "values": [
      {"measurement": "IC50", "setting": "Table 8, arylsulfonamides, read-out: MDA pIC50 (converted)", "value": 324, "unit": "nM"}
    ]},
    {"compound": "COc1ccc(-c2nc(SCCNS(=O)(=O)c3ccc(C(C)(C)C)cc3)[nH]c2-c2ccc(OC)cc2)cc1", "note": "[Compound T26, N^1-{2-[4,5-Bis(4-methoxyphenyl)-1H-imidazol-2-ylsufanyl]ethyl}-4-(tert-butyl)benzenesulfonamide]", "values": [
      {"measurement": "IC50", "setting": "[3]", "value": 490, "unit": "nM"}
    ]},
    {"compound": "COc1ccc(-c2nc(SCCNC(=O)c3ccccc3)[nH]c2-c2ccc(OC)cc2)cc1", "note": "[Compound T28, N^1-{2-[4,5-Bis(4-methoxyphenyl)-1H-imidazol-2-ylsufanyl]ethyl}benzamide]", "values": [
      {"measurement": "IC50", "setting": "[4]", "value": 540, "unit": "nM"}
    ]},
    {"compound": "COc1ccc(-c2nc(SCCNC(=O)c3ccccc3)n(C)c2-c2ccc(OC)cc2)cc1", "note": "[Compound T30, N^1-{2-[4,5-Bis(4-methoxyphenyl)-1-methyl-1H-imidazol-2-ylsufanyl]-ethyl}benzamide]", "values": [
      {"measurement": "IC50", "setting": "Table 17, methyl derivatives, read-out: MDA pIC50 (converted)", "value": 41.7, "unit": "nM"}
    ]},
    {"compound": "COc1ccc(-c2nc(SCCNC(=O)c3ccc(Cl)cc3)[nH]c2-c2ccc(OC)cc2)cc1", "note": "[Compound T32, N^1-{2-[4,5-Bis(4-methoxyphenyl)-1H-imidazol-2-ylsufanyl]ethyl}-4-chlorobenzamide]", "values": [
      {"measurement": "IC50", "setting": "[5]", "value": 251, "unit": "nM"}
    ]},
    {"compound": "COc1ccc(-c2nc(SCCNC(=O)c3cccc(Cl)c3)[nH]c2-c2ccc(OC)cc2)cc1", "note": "[Compound T33, N^1-{2-[4,5-Bis(4-methoxyphenyl)-1H-imidazol-2-ylsufanyl]ethyl}-3-chlorobenzamide]", "values": [
      {"measurement": "MDA pIC50", "setting": "Table 7, arylamides", "value": 6.03, "unit": "M"},
      {"measurement": "IC50", "setting": "[4]", "value": 930, "unit": "nM"}
    ]},
    {"compound": "COc1ccc(-c2nc(SCCNC(=O)c3ccccc3Cl)[nH]c2-c2ccc(OC)cc2)cc1", "note": "[Compound T34, N^1-{2-[4,5-Bis(4-methoxyphenyl)-1H-imidazol-2-ylsufanyl]ethyl}-2-chlorobenzamide]", "values": [
      {"measurement": "IC50", "setting": "[4]", "value": 62, "unit": "nM"}
    ]},
    {"compound": "COc1ccc(-c2nc(SCCNC(=O)c3ccc(Cl)cc3Cl)[nH]c2-c2ccc(OC)cc2)cc1", "note": "[Compound T35, N^1-{2-[4,5-Bis(4-methoxyphenyl)-1H-imidazol-2-ylsufanyl]ethyl}-2,4-dichlorobenzamide]", "values": [
      {"measurement": "IC50", "setting": "[5]", "value": 151, "unit": "nM"}
    ]},
    {"compound": "COc1ccc(-c2nc(SCCNC(=O)c3c(Cl)cccc3Cl)[nH]c2-c2ccc(OC)cc2)cc1", "note": "[Compound T36, N^1-{2-[4,5-Bis(4-methoxyphenyl)-1H-imidazol-2-ylsufanyl]ethyl}-2,6-dichlorobenzamide]", "values": [
      {"measurement": "IC50", "setting": "[5]", "value": 110, "unit": "nM"}
    ]},
    {"compound": "COc1ccc(-c2nc(SCCNC(=O)c3cc(Cl)cc(Cl)c3)[nH]c2-c2ccc(OC)cc2)cc1", "note": "[Compound T37, N^1-{2-[4,5-Bis(4-methoxyphenyl)-1H-imidazol-2-ylsulfanyl]ethyl}-3,5-dichlorobenzamide]", "values": [
      {"measurement": "IC50", "setting": "[4]", "value": 520, "unit": "nM"}
    ]},
    {"compound": "COc1ccc(-c2nc(SCCNC(=O)c3ccc(F)cc3)[nH]c2-c2ccc(OC)cc2)cc1", "note": "[Compound T38, N^1-{2-[4,5-Bis(4-methoxyphenyl)-1H-imidazol-2-ylsufanyl]ethyl}-4-fluorobenzamide]", "values": [
      {"measurement": "IC50", "setting": "[5]", "value": 251, "unit": "nM"}
    ]},
    {"compound": "COc1ccc(-c2nc(SCCNC(=O)c3ccc(C#N)cc3)[nH]c2-c2ccc(OC)cc2)cc1", "note": "[Compound T39, N^1-{2-[4,5-Bis(4-methoxyphenyl)-1H-imidazol-2ylsulfanyl]ethyl}-4-cyanobenzamide]", "values": [
      {"measurement": "IC50", "setting": "[5]", "value": 141, "unit": "nM"}
    ]},
    {"compound": "COc1ccc(-c2nc(SCCNC(=O)c3ccc([N+](=O)[O-])cc3)[nH]c2-c2ccc(OC)cc2)cc1", "note": "[Compound T40, N^1-{2-[4,5-Bis(4-methoxyphenyl)-1H-imidazol-2-ylsufanyl]ethyl}-4-nitro-benzamide]", "values": [
      {"measurement": "IC50", "setting": "[4]", "value": 81, "unit": "nM"}
    ]}
  ]
}
